Measured values as given in US20240050427A1, “TREATMENTS FOR OBSESSIVE COMPULSIVE DISORDER” (SIRGARTAN HOLDINGS LTD, priority 2022, published 2024).

Legend:
rat model of OCD [1] = assay: Observing Response Task (ORT), rat model of compulsive-like checking in OCD (sign-trackers = OCD model, goal-trackers = controls); type: in vivo
Source text: OCD may be studied using animal models and such models may be used to evaluate compounds of the present invention. One model may be a rat model of compulsive-like checking behaviour described by Eagle et al., Behav. Brain Res, 1 May 2014; 264(100): 207-29. Briefly, rats are trained to work for palatable food which is unpredictably available for responding on one of two levers in an operant chamber. The rats can gain information about the location of the effective lever by making ‘observing responses’ on a third lever at the rear of the chamber. Predictably, responding on this lever is increased under conditions of uncertainty, as this adaptive checking increases the chance of food reward. However, some rats respond excessively on the observing lever and this can be disadvantageous or ‘non-functional’. This excessive checking behaviour is boosted by treatment with dopamine D2 receptor drugs such as quinpirole and also if there is a prior tendency in rats to over-respond to conditioning signals for food (‘sign-tracking’), associated with elevated dopamine activity in the nucleus accumbens. Rats who respond to the food itself are called goal-trackers. […] Moreover, in a human version of this test (i.e. involving essentially the same task for humans as for rodents), it has been shown that OCD patients check more than healthy control volunteers (Morein-Zamir et al., Q. J. Exp. Psychol. (Hove), 2018 October; 71(10): 2052-2069).
Male Lister-hooded rats (n=48, Charles River, UK) were group-housed in fours and maintained at approximately 95% free-feeding weight. Experiments were conducted during the dark phase of a reversed 12-hour light-dark cycle (lights off at 07:00). This research was conducted on UK Home Office Project Licence PA9FBFA9F and was regulated under the Animals (Scientific Procedures) Act 1986 Amendment Regulations 2012 following ethical review by the University of Cambridge Animal Welfare and Ethical Review Body.
The 48 male Lister-Hooded rats were trained on the Observing Response Task (ORT) and classified as sign-trackers […] or goal-trackers (n=24) following AutoShaping training, as described previously. Based on the research described above, the sign-tracker rats provide the OCD model and the goal-trackers are controls.
The ‘drug treatment’ data refer to behaviour under the influence of the specific dose (3 mg/kg or 10 mg/kg), 2 hours after an intraperitoneal injection. The ‘0 mg/kg’ data refer to an intraperitoneal injection of the 0.9% (w/v) physiological saline vehicle.
Rats were divided into groups to receive different doses of AZD-8529 in a counterbalanced order. […] “mg/kg” refers to a dose that was determined based on the body weight of the rat. For example, a rat weighing 0.5 kg receiving a dose of 3 mg/kg would receive a dose of 1.5 mg.
All statistical analyses were conducted using IBM SPSS Statistics v27. Data were analysed using repeated measures ANOVAs. Omnibus ANOVAs were first conducted to determine whether the order of drug dosing influenced the behavioural outcomes, and whether there were differences in baseline levels of responding. Planned ANOVAs assessing the drug administration sessions only were subsequently conducted.

rat model of OCD [2] = assay: as above; type: in vivo; settings: rats, 30 mg/kg single intraperitoneal dose

Cc1cc(-c2nc(CN3CCNCC3)no2)cc2c1C(=O)N(Cc1ccc(OC(F)(F)F)cc1)C2 [AZD-8529, 7-methyl-5-(3-piperazin-1-ylmethyl-[1,2,4]oxadiazol-5-yl)-2-(4-trifluoromethoxybenzyl)-2,3-dihydroisoindol-1-one]
number of rewards earned during the session (rat model of OCD [1]; 3 mg/kg i.p. vs vehicle, full cohort, p=0.91): equivalent numbers of rewards were earned | increased responding on the active lever during the cue (discrimination with light on) (rat model of OCD [1]; 3 mg/kg i.p., full cohort, p=0.38): not seen | number of rewards earned during the session (rat model of OCD [1]; 10 mg/kg i.p., full cohort, compared to vehicle and 3 mg/kg, p<0.001): reduced the numbers of reward earned | increased responding on the active lever during the cue (discrimination with light on) (rat model of OCD [1]; 10 mg/kg i.p., full cohort, p=0.21): not seen | dysfunctional checking (eOLPs) (rat model of OCD [1]; OCD model (sign-trackers), 3 mg/kg i.p. vs 0 mg/kg control, p<0.002): reduction in dysfunctional checking | dysfunctional checking (eOLPs) (rat model of OCD [1]; OCD model (sign-trackers), 10 mg/kg i.p. vs 0 mg/kg control, p<0.002, not lower than 3 mg/kg (p=0.94)): reduction in dysfunctional checking | functional checking (Observing Lever Presses, OLPs) (rat model of OCD [1]; OCD model (sign-trackers), 3 and 10 mg/kg i.p., 2 hours after injection, p<0.001): reduced functional checking in a dose-dependent manner | functional checking (Observing Lever Presses, OLPs) (rat model of OCD [1]; controls (goal-trackers), 3 and 10 mg/kg i.p., 2 hours after injection, p=0.008): reduced functional checking in a dose-dependent manner | dysfunctional checking (eOLPs) (rat model of OCD [1]; controls (goal-trackers), 3 and 10 mg/kg i.p., all p's>0.079): no overall reduction in dysfunctional checking | functional checking (Observing Lever Presses, OLPs) (rat model of OCD [1]; full cohort (sign-trackers plus goal-trackers), 3 and 10 mg/kg i.p. vs 0 mg/kg, 2 hours after injection, mesylate salt, p<0.001): reduced functional checking in a dose-dependent manner | dysfunctional checking (Extra Observing Lever Presses, eOLPs) (rat model of OCD [1]; full cohort, 3 and 10 mg/kg i.p. vs 0 mg/kg, 2 hours after injection, p<0.001): reduced dysfunctional checking in a dose-dependent manner | adverse effects (rat model of OCD [2]): unexpected adverse gastrointestinal effects
